Test results published in patent US20240294518A1, “NITROGEN-CONTAINING HETEROCYCLIC COMPOUND” (Evopoint Biosciences Co., Ltd., priority 2021, published 2024).

Molecular target: HPK1 kinase (Homo sapiens, UniProt Q92918)
Test: HPK1 kinase inhibition assay, ADP-Glo platform
Type: biochemical
Conditions: 0.3 nM HPK1, 5 μM ATP, 0.05 mg/mL MBP
Description: The compounds to be tested were each dissolved in 100% DMSO, with the mother liquor concentration being 10 mM. The liquor was 3-fold diluted at a test starting concentration of 10 μM to yield ten data points, with two replicates set for each point.
The inhibition of the activity of HPK1 kinase by the compound was assayed using an ADP-Glo™ platform. The reaction was performed in a 384-well plate containing 0.3 nM HPK1, 5 μM ATP, 0.05 mg/mL MBP, 0-10 μM compound, and 1% DMSO per well. The reaction buffer was as follows: 50 mM HEPES, 10 mM MgCl2, 1 mM EGTA, 1 mM DTT, 0.01% Brij 35, pH=7.5. The compound and the kinase were incubated at 25° C. for 15 min, and a substrate and ATP were added to initiate the reaction. After 1 h of reaction at 25° C., the ADP-Glo™ reagent was added, and the reaction was terminated, followed by incubation at 25° C. for 1 h. The kinase detection reagent was added, and after 1 h of incubation at 25° C., the chemiluminescence signal was detected. Based on this reading, inhibition percentage was calculated, and IC50 for the compound was calculated using four-parameter fitting.

Chain of HPK1 kinase (Q92918 whole entry): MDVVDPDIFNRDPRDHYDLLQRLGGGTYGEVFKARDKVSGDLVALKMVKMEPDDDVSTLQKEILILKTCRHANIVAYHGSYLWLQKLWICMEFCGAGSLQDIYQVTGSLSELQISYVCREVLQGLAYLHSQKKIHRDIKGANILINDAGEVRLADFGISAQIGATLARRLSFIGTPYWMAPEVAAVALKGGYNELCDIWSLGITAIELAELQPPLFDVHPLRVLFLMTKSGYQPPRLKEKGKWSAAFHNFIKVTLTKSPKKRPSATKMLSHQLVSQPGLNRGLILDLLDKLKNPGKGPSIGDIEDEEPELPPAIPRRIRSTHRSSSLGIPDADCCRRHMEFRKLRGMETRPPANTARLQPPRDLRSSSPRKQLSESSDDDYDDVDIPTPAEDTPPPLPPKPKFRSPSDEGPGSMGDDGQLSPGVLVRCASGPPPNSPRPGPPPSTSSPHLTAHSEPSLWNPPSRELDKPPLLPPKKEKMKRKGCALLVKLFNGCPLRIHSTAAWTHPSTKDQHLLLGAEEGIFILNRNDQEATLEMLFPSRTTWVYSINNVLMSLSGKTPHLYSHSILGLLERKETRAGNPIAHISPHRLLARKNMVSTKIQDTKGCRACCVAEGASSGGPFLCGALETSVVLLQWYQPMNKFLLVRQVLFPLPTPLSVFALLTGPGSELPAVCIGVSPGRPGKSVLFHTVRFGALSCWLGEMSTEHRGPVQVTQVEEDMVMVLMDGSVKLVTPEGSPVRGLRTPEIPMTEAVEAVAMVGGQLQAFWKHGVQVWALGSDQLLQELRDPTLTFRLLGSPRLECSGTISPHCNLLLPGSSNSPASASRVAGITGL

SMILES | IC50 [nM]
Clc1c[nH]c2ncc(-c3ccc(C4CCOCC4)c([C@@H]4COCCN4)n3)cc12 [Compound A-20] | 0.01 to 5
CN(C)Cc1nc(-c2cnc3[nH]cc(C(F)(F)F)c3c2)ccc1C1CCOCC1 [Compound A-28] | 10 to 100
FC(F)(F)C1(c2c[nH]c3ncc(-c4ccc(C5CCOCC5)c([C@@H]5COCCN5)n4)cc23)CC1 [Compound A-30] | 0.01 to 5
OCc1c[nH]c2ncc(-c3ccc(C4CCOCC4)c(C4COCCN4)n3)cc12 (stereo not drawn) [Compound A-21] | 5 to 10
Cc1c[nH]c2ncc(-c3ccc(C4CCOCC4)c(C4COCCN4)n3)c(F)c12 (stereo not drawn) [Compound A-7] | 10 to 100
Cc1c[nH]c2ncc(-c3ccc(C4CCOCC4)c(C4COCCN4)c3)c(F)c12 (stereo not drawn) [Compound A-3] | 5 to 10
c1nc2[nH]cc(C3CC3)c2cc1-c1ccc(C2CCOCC2)c([C@H]2COCCN2)n1 [Compound A-16] | 10 to 100
Cc1c[nH]c2ncc(-c3cc(Cl)c(C4=CCOCC4)c(C4COCCN4)c3)cc12 (stereo not drawn) [Compound A-13] | 5 to 10
C[C@H]1CCCN1Cc1nc(-c2cnc3[nH]cc(C4CC4)c3c2)ccc1C1CCOCC1 [Compound A-24] | 5 to 10
c1nc2[nH]cc(C3CC3)c2cc1-c1ccc(C2CCOCC2)c([C@@H]2COCCN2)n1 [Compound A-15] | 0.01 to 5
COc1cc(-c2cnc3[nH]cc(C(F)(F)F)c3c2)cc([C@@H]2COCCN2)c1C1CCOCC1 [Compound A-34] | 0.01 to 5
FC(F)(F)c1c[nH]c2ncc(-c3ccc(C4CCOCC4)c(CN4CCCC4)n3)cc12 [Compound A-23] | 5 to 10
Cc1cc(-c2cnc3[nH]cc(C(F)(F)F)c3c2)cc([C@@H]2COCCN2)c1C1CCOCC1 [Compound A-33] | 0.01 to 5
Cc1cc(-c2cnc3[nH]cc(C)c3c2)cc([C@@H]2COCCN2)c1C1CCOCC1 [Compound A-36] | 0.01 to 5
c1nc2[nH]cc(C3CC3)c2cc1-c1ccc(C2CCOCC2)c(CN2CCCC2)n1 [Compound A-22] | 0.01 to 5
Cc1c[nH]c2ncc(-c3cc(O)c(C4CCOCC4)c(C4COCCN4)c3)cc12 (stereo not drawn) [Compound A-39] | 0.01 to 5
Cc1c[nH]c2ncc(-c3ccc(C4CCOCC4)c(CN4CCCC4)n3)cc12 [Compound A-26] | 10 to 100

SMILES | IC50 [nM]
COc1cc(-c2cnc3[nH]cc(C)c3c2)cc([C@@H]2COCCN2)c1C1CCOCC1 [Compound A-38] | 0.01 to 5
Cc1c[nH]c2ncc(-c3ccc(C4CCOCC4)c(C4COCCN4)c3F)cc12 (stereo not drawn) [Compound A-10] | 10 to 100
CN(C)C(=O)C#Cc1c[nH]c2ncc(-c3ccc(C4CCOCC4)c(C4COCCN4)c3)cc12 (single isomer, unassigned) [Compound A-14] | 0.01 to 5
Cc1cc(-c2cnc3[nH]cc(C)c3c2)cc(C2COCCN2)c1C1CCOCC1 (stereo not drawn) [Compound A-5] | 0.01 to 5
Cc1c[nH]c2ncc(-c3cc(C4COCCN4)c(C4CCOCC4)cc3F)cc12 (stereo not drawn) [Compound A-11] | 10 to 100
C[C@@H]1CCCN1Cc1nc(-c2cnc3[nH]cc(C4CC4)c3c2)ccc1C1CCOCC1 [Compound A-25] | 0.01 to 5
FC(F)(F)c1c[nH]c2ncc(-c3ccc(C4CCOCC4)c([C@@H]4COCCN4)n3)cc12 [Compound A-18] | 0.01 to 5
Cc1cc(-c2cnc3[nH]cc(C(F)(F)F)c3c2)nc(C2COCCN2)c1C1CCOCC1 (stereo not drawn) [Compound A-27] | 0.01 to 5
Clc1c[nH]c2ncc(-c3ccc(C4CCOCC4)c([C@H]4COCCN4)n3)cc12 [Compound A-19] | 10 to 100
COC(=O)c1c[nH]c2ncc(-c3ccc(C4CCOCC4)c(C4COCCN4)n3)cc12 (stereo not drawn) [Compound A-29] | 0.01 to 5
COc1cc(-c2cnc3[nH]cc(C)c3c2)cc(C2COCCN2)c1C1CCOCC1 (stereo not drawn) [Compound A-9] | 5 to 10
COc1cc(-c2cnc3[nH]cc(C(F)(F)F)c3c2)cc([C@H]2COCCN2)c1C1CCOCC1 [Compound A-35] | 10 to 100
Cc1cc(-c2cnc3[nH]cc(C(F)(F)F)c3c2)cc([C@H]2COCCN2)c1C1CCOCC1 [Compound A-32] | 5 to 10
Cc1c[nH]c2ncc(-c3cc(C4COCCN4)c(C4CCOCC4)cc3Cl)cc12 (stereo not drawn) [Compound A-8] | 10 to 100
Cc1cc(-c2cnc3[nH]cc(C)c3c2)cc(C2COCCN2)c1C1=CCOCC1 (stereo not drawn) [Compound A-12] | 0.01 to 5
Cc1c[nH]c2ncc(-c3cc(Cl)c(C4CCOCC4)c(C4COCCN4)c3)cc12 (stereo not drawn) [Compound A-6] | 0.01 to 5
